# pEC50: −log10 of the molar value.
# Key:
# [1] = biological target: T1, Glucose-dependent insulinotropic receptor (Homo sapiens) (UniProt Q8TDV5); test: Agonist activity at human GPR119 by cAMP assay relative to control; assay type: functional; design: concentration or dose not given beside the values
# T1 sequence (whole entry): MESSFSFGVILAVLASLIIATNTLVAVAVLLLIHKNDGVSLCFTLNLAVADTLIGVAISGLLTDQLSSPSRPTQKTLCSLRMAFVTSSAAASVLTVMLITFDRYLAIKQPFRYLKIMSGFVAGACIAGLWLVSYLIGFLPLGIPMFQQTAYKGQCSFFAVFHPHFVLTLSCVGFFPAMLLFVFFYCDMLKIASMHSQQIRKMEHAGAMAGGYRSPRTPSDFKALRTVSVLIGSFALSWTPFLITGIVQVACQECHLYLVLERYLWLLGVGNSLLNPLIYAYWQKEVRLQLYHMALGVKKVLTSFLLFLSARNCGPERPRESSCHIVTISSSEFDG
# [2] = biological target: T2, Glucose-dependent insulinotropic receptor (Mus musculus, UniProt Q7TQP3); test: Agonist activity at mouse GPR119 by cAMP assay; assay type: functional
# T2 sequence (Q7TQP3 whole entry): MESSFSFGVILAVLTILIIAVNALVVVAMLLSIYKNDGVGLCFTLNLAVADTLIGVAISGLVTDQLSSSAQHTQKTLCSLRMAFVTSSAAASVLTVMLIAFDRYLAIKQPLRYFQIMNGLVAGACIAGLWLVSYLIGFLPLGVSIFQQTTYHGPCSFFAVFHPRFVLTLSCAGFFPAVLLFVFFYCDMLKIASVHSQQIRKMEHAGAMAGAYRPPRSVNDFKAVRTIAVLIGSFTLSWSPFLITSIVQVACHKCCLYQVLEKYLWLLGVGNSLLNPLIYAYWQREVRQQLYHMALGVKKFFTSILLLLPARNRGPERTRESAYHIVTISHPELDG
# [3] = Kinetic solubility in FaSSIF at pH 6.5; assay type: physicochemical; conditions: for solubility kinetic: FaSSIF, read-out: Kinetic_solubility
# [4] = biological target: T3, Glucose-dependent insulinotropic receptor (Mus musculus) (UniProt Q7TQP3); test: Agonist activity at mouse GPR119 by cAMP assay relative to control; assay type: functional; design: concentration or dose not given beside the values
# T3 sequence (whole entry): T2 sequence (Q7TQP3 whole entry)
# [5] = Lipophilicity, logD of the compound at pH 7 by HPLC method; assay type: physicochemical; conditions: buffer
# [6] = biological target: T4, Glucose-dependent insulinotropic receptor (Homo sapiens, UniProt Q8TDV5); test: Agonist activity at human GPR119 expressed in CHO cells by cAMP assay; assay type: functional, cell-based
# T4 sequence (Q8TDV5 whole entry): T1 sequence (whole entry)
# [7] = (§1) Half life in Wistar Han rat at 0.5 mg/kg, iv LC-MS/MS method; assay type: ADME, organism-based; conditions: Wistar Han, in vivo
# Rattus norvegicus [8] = test: Unbound volume of distribution in Wistar Han rat at 0.5 mg/kg, iv LC-MS/MS method; assay type: ADME, organism-based; conditions: in vivo
# [9] = Fraction unbound in rat plasma; assay type: ADME, cell-free
# Rattus norvegicus [10] = test: Volume of distribution in Wistar Han rat at 0.5 mg/kg, iv LC-MS/MS method; assay type: ADME, organism-based; conditions: in vivo
# Rattus norvegicus [11] = test: as §1; assay type: ADME, organism-based; conditions: in vivo
# [12] = Intrinsic clearance in rat liver microsomes; assay type: ADME; conditions: read-out: CLH
Compound,Activity [1],pEC50 [2],solubility kinetic [3],Activity [4],logD [5],pEC50 [6],half-life [7],Vdu (Rattus norvegicus [8]),fraction unbound [9],Vd (Rattus norvegicus [10]),t1/2 (Rattus norvegicus [11]),CLint scaled [12],Kinetic_solubility ([3]; simulated gi fluid)
CCOc1cnc(N2CCC([C@H]3C[C@H]3COCc3ccc(S(C)(=O)=O)c(F)c3)CC2)nc1,75%,8.64,101 µM,96%,4.2,8.77,0.8 h,,,,,,
CCS(=O)(=O)c1ccc(OCC[C@@H]2C[C@@H]2C2CCN(c3nc(C(C)C)no3)CC2)c(F)c1,69%,,61 µM,,4.2,8.77,,242 L/kg,0.02,4.8 L/kg,6.5 h,675 mL/min/kg,
O=S(=O)(CCO)c1ccc(COC[C@@H]2C[C@@H]2C2CCN(c3ncc(Cl)cn3)CC2)c(F)c1,68%,8.77,83 µM,121%,4.8,8.64,0.9 h,,,,,,
COC(C)c1cnc(N2CCC([C@H]3C[C@H]3COCc3ccc(S(C)(=O)=O)cc3F)CC2)nc1 (stereo in doubt; 29) [listing 1 of 2 here],87%,,,109%,,,,,,,,,
COC(C)c1cnc(N2CCC([C@H]3C[C@H]3COCc3ccc(S(C)(=O)=O)cc3F)CC2)nc1 (stereo in doubt; 30) [listing 1 of 2 here],95%,,,70%,,,,,,,,,
COCc1cnc(N2CCC([C@H]3C[C@H]3COCc3ccc(CC(=O)N4CCOCC4)cc3F)CC2)nc1,104%,8.43,172 µM,99%,3.4,8.49,0.4 h,,,,,,
CCc1cnc(N2CCC([C@H]3C[C@H]3COCc3ccc(S(C)(=O)=O)cn3)CC2)nc1,83%,8.60,7 µM,153%,3.6,8.82,1.3 h,,,,,,
COC(C)c1cnc(N2CCC([C@H]3C[C@H]3COCc3ccc(S(C)(=O)=O)cc3F)CC2)nc1 (stereo in doubt; 30) [listing 2 of 2 here],,8.48,137 µM,,3.9,8.34,,,,,1 h,,
COC(C)c1cnc(N2CCC([C@H]3C[C@H]3COCc3ccc(S(C)(=O)=O)cc3F)CC2)nc1 (stereo in doubt; 29) [listing 2 of 2 here],,8.05,,,,8.51,1.4 h,,,,,,143 µM
COCc1cnc(N2CCC([C@H]3C[C@H]3COCc3ccc(-n4cnnn4)c(F)c3)CC2)nc1,84%,8.42,133 µM,75%,3.7,8.96,3 h,,,,,,
CS(=O)(=O)c1ccc(COC[C@@H]2C[C@@H]2C2CCN(c3ncc(F)cn3)CC2)cc1F,85%,8.35,92 µM,131%,4.2,8.62,1.5 h,,,,,,
CCc1cnc(N2CCC([C@H]3C[C@H]3COCc3ccc(S(C)(=O)=O)c(F)c3)CC2)nc1,98%,8.26,140 µM,115%,4.3,8.60,1 h,,,,,,
CCS(=O)(=O)c1ccc(COC[C@@H]2C[C@@H]2C2CCN(c3nc(C(C)C)no3)CC2)c(F)c1,71%,,127 µM,,4,9.10,,62 L/kg,0.058,4.8 L/kg,1.5 h,905 mL/min/kg,
CC(C)c1noc(N2CCC([C@H]3C[C@H]3COCc3ccc(-n4cnnn4)cc3F)CC2)n1,129%,8.32,103 µM,105%,3.9,8.77,1.4 h,,,,,,
CC1(OC(=O)N2CCC([C@H]3C[C@H]3COCc3ccc(-n4cnnn4)cc3F)CC2)CC1,121%,7.82,127 µM,108%,3.8,8.32,1 h,,,,,,
COCc1cnc(N2CCC([C@H]3C[C@H]3COCc3ccc(S(C)(=O)=O)c(F)c3)CC2)nc1,94%,8.28,155 µM,87%,3.5,8.48,1.2 h,,,,,,
CCS(=O)(=O)c1ccc(COC[C@@H]2C[C@@H]2C2CCN(c3ncc(COC)cn3)CC2)c(F)c1,58%,7.90,129 µM,87%,3.8,8.15,2.1 h,,,,,,
COCc1cnc(N2CCC([C@H]3C[C@H]3COCc3cc(F)c(S(C)(=O)=O)c(F)c3)CC2)nc1,80%,8.24,115 µM,67%,3.6,8.35,0.5 h,,,,,,
COc1cnc(N2CCC([C@H]3C[C@H]3COCc3ccc(S(C)(=O)=O)cc3F)CC2)nc1,79%,8.85,151 µM,85%,4,8.35,0.6 h,,,,,,
CC(C)c1noc(N2CCC([C@H]3C[C@H]3COCc3ccc(S(C)(=O)=O)cc3F)CC2)n1,87%,8.00,144 µM,76%,3.8,8.38,2.2 h,,,,,,

# Source: ChEMBL document CHEMBL3621146, “Design of Potent and Orally Active GPR119 Agonists for the Treatment of Type II Diabetes” (ACS Med Chem Lett, 2015)
